Assay results as given in the Kinase Knowledgebase extract (Sharma et al. 2016).

Molecular target: MAPK14 (human) (UniProt Q16539)
Assay: Inhibtion of MAPK14 Kinase Activity

Chain of MAPK14 (human) (Q16539 whole entry, looked up): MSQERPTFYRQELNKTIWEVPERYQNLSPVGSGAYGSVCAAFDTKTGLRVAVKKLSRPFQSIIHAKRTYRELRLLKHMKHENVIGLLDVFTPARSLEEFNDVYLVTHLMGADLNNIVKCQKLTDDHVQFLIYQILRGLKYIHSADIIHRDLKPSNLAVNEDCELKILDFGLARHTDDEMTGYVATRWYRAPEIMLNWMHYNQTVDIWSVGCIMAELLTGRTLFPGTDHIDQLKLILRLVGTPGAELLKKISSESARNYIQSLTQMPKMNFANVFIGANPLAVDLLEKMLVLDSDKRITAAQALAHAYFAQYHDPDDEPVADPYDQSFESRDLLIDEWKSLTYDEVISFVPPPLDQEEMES

| SMILES | IC50 [nM] |
| --- | --- |
| Nc1c(C(=O)c2ccc(F)cc2)ccc(=O)n1-c1ccc(OCCCN[C@@H](Cc2ccccc2)C(=O)OC2CCCC2)cc1 | < 100 |
| Cc1cc(C(=O)c2ccc(=O)n(-c3ccc(OCCCN[C@@H](Cc4ccccc4)C(=O)O)cc3)c2N)ccc1F | < 100 |
| Nc1c(C(=O)c2ccc(F)cc2F)ccc(=O)n1-c1ccc(CN[C@@H](Cc2ccccc2)C(=O)OC2CCCC2)cc1 | < 100 |
| Nc1c(C(=O)c2ccc(F)cc2F)ccc(=O)n1-c1c(F)cc(OCCCN[C@@H](Cc2ccccc2)C(=O)OC2CCCC2)cc1F | < 100 |
| Nc1c(C(=O)c2ccc(F)cc2)ccc(=O)n1-c1ccc(CCN[C@H](C(=O)O)c2ccccc2)cc1 | < 100 |
| O=C(c1ccc(F)cc1)c1ccc(=O)[nH]c1Nc1c(F)cc(CN[C@@H](Cc2ccccc2)C(=O)OC2CCCC2)cc1F | < 100 |
| Nc1c(C(=O)c2ccc(F)cc2F)ccc(=O)n1-c1c(F)cc(OCCCN[C@@H](C(=O)OC2CCCC2)c2ccccc2)cc1F | < 100 |

The next lines start with the values.

| IC50 [nM] | SMILES |
| --- | --- |
| < 100 | NCC[C@H](NCCCOc1cc(F)c(-n2c(N)c(C(=O)c3ccc(F)cc3F)ccc2=O)c(F)c1)C(=O)OC1CCCC1 |
| < 100 | CCOC(=O)[C@H](CC(C)C)NCCCOc1cc(F)c(-n2c(N)c(C(=O)c3ccc(F)cc3)ccc2=O)c(F)c1 |
| < 100 | CC(C)C[C@H](NCCCCCOc1cc(F)c(-n2c(N)c(C(=O)c3ccc(F)cc3)ccc2=O)c(F)c1)C(=O)O |
| < 100 | Cc1cc(C(=O)c2ccc(=O)n(-c3ccc(OCCCN[C@@H](CC(C)C)C(=O)O)cc3)c2N)ccc1F |
| < 100 | Nc1c(C(=O)c2ccc(F)cc2)ccc(=O)n1-c1c(F)cc(OCCCN[C@@H](Cc2ccccc2)C(=O)O)cc1F |
| < 100 | CC(C)C[C@H](NCCCOc1ccc(-n2c(N)c(C(=O)c3ccc(F)cc3F)ccc2=O)cc1)C(=O)OC(C)(C)C |
| < 100 | CC(C)C[C@H](NCc1cc(F)c(-n2c(N)c(C(=O)c3ccc(F)cc3F)ccc2=O)c(F)c1)C(=O)O |
| < 100 | CC(C)C[C@H](NCCCOc1ccc(-n2c(N)c(C(=O)c3ccc(F)cc3)ccc2=O)cc1)C(=O)O |
| < 100 | CC(C)C[C@H](NCCCOc1cc(F)c(-n2c(N)c(C(=O)c3ccc(F)cc3F)ccc2=O)c(F)c1)C(=O)OCCN1CCOCC1 |
| < 100 | CC(C)C[C@H](NCCCOc1ccc(-n2c(N)c(C(=O)c3ccc(F)cc3)ccc2=O)cc1)C(=O)OC1CCCC1 |
